Experimental data: ChEMBL document CHEMBL2073747, “Methadone inhibits rhodamine123 transport in Caco-2 cells” (Drug Metab Dispos, 2001)
pIC50: −log10 of the molar value.

Tests used:
[1] = target: T1, ATP-dependent translocase ABCB1 (Homo sapiens, UniProt P08183); assay: TP_TRANSPORTER: inhibition of Rhodamine 123 transepithelial transport (basal to apical) (Rhodamine 123: 5 uM) in Caco-2 cells; type: functional, cell-based
[2] = target: T1, ATP-dependent translocase ABCB1; assay: TP_TRANSPORTER: transepithelial transport (basal to apical) in Caco-2 cells; type: functional, cell-based

T1 sequence (P08183 whole entry): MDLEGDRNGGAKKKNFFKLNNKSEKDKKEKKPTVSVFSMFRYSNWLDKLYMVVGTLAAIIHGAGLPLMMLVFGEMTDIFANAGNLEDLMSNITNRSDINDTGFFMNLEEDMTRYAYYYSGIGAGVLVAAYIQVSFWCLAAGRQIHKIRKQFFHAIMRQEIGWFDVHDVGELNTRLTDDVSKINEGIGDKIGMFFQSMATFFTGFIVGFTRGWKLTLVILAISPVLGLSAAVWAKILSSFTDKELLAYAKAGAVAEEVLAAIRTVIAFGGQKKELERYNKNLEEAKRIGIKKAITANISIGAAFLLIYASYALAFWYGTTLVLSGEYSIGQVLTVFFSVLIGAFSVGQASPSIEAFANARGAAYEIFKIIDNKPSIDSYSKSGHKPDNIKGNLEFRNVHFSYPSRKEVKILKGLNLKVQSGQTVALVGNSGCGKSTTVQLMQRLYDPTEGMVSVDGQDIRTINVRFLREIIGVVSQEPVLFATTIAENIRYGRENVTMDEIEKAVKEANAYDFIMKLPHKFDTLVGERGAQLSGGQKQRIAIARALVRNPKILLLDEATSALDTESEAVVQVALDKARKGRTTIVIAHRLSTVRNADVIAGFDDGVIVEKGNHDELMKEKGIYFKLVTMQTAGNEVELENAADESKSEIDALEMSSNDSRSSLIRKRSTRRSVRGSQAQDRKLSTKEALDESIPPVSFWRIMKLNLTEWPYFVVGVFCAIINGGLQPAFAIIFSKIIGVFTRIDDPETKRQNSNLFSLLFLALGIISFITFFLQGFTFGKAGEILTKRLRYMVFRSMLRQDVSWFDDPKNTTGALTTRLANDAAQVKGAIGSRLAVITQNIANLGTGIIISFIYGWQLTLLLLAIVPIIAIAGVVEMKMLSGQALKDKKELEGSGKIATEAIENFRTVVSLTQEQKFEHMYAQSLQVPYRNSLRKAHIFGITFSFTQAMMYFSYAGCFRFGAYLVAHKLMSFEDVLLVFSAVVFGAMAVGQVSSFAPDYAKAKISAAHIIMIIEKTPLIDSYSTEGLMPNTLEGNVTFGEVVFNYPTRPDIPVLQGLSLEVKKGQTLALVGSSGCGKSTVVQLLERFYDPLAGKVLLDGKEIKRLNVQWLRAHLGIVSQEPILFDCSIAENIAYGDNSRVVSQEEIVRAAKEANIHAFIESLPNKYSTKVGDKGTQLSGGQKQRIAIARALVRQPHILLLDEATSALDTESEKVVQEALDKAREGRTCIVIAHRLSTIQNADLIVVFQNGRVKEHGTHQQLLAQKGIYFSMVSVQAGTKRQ

CCC(=O)C(CC(C)N(C)C)(c1ccccc1)c1ccccc1 (configuration not stated) [METHADONE]
pIC50 [1]: 5.12 | Activity [2]: is not a substrate [-]
